We go through 59 compounds from BindingDB's records for doi:10.7270/Q2MK6B9H (Nmmlsc, 2009).

What is called EC50 is the concentration needed to bring the measured effect to its halfway point. Lower therefore signals greater potency.

The target in the first test is Ras-related protein Rab-7a (Canis lupus familiaris, UniProt P18067). The test can be described thus: inhibition of fluorescent GTP loading on Rab7 – biochemical, dog Rab7, bead multiplex flow cytometry, Bodipy-FL-GTP, pyrazoline series, SAR follow-up (AID 2041).
Chain of Ras-related protein Rab-7a (P18067 whole entry): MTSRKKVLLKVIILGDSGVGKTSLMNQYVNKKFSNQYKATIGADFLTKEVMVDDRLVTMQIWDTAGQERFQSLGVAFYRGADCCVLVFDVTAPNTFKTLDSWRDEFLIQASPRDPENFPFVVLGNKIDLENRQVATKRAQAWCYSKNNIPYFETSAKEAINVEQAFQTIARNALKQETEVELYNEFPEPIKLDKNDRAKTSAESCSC
Settings: not given
(In general: A flow cytometer gives signals particle by particle.)
`Cc1onc(-c2ccccc2)c1-c1ccc(S(N)(=O)=O)cc1` came in with an EC50 of more than 30 µM.

`O=[N+]([O-])c1ccc([N+]2=N[C-](c3ccccc3)CC2c2ccccc2)cc1` (centres undefined) came in with a concentration for a half-maximal effect (EC50) of more than 30 µM.

`Brc1ccc(N2N=C(c3ccccc3)CC2c2ccccc2)cc1` (centres undefined) registered an EC50 of more than 30 µM.

Turning to `COc1ccccc1C1CC(c2ccccc2)=NN1c1ccccc1` (centres undefined), the 50% effective concentration (EC50) was more than 30 µM.

Regarding `Clc1cccc(N2N=C(c3ccccc3)CC2c2ccccc2)c1` (centres undefined), the half-maximal effective concentration (EC50) is more than 30 µM.

In turn, `CC(=O)Oc1ccc(C2=NN(c3ccccc3)C(c3ccccc3)C2)cc1` (centres undefined) gave a concentration giving a half-maximal response (EC50) of more than 30 µM.

In turn, `O=C(O)c1ccc(N2N=C(c3ccccc3)CC2c2ccccc2)cc1` (centres undefined) showed an EC50 of more than 30 µM.

`COc1ccc(C2=NN(c3ccccc3)C(c3ccccc3C(F)(F)F)C2)cc1` (centres undefined) gave an EC50 of more than 30 µM.

For `NS(=O)(=O)c1ccc(N2N=C(c3ccc(Cl)cc3)CC2c2ccccc2)cc1` (centres undefined), the EC50 was more than 30 µM.

For `CCc1ccc(C2=NN(c3ccc(S(N)(=O)=O)cc3)C(c3ccc(F)cc3)C2)cc1` (centres undefined), the concentration for a half-maximal effect (EC50) is more than 30 µM.

Compound `CN(C)c1ccc(C2C[C-](c3ccccc3)N=[N+]2c2ccc([N+](=O)[O-])cc2)cc1` (centres undefined) returned a half-maximal effective concentration (EC50) of more than 30 µM.

The compound `COc1ccc(C2CC(c3ccc(F)cc3)=NN2c2cccc(F)c2)cc1OC` (centres undefined) came in with an EC50 of 22.5 µM.

`COc1ccc(C2CC(c3ccccc3)=NN2c2ccc(Cl)c(C(=O)O)c2)cc1` (centres undefined) displayed an EC50 of more than 30 µM.

Compound `COc1ccc(C2CC(c3ccc(Cl)cc3)=NN2c2ccc(S(N)(=O)=O)cc2)cc1` (centres undefined) showed a half-maximal effective concentration (EC50) of more than 30 µM.

The compound `Cc1ccc(C2CC(c3ccccc3)=NN2c2ccc(S(N)(=O)=O)cc2)cc1` (centres undefined) registered a concentration giving a half-maximal response (EC50) of more than 30 µM.

In turn, `Cc1cccc(C2CC(c3ccccc3)=NN2c2ccc(S(N)(=O)=O)cc2)c1` (centres undefined) displayed an EC50 of more than 30 µM.

In the case of `COc1ccc(C2CC(c3ccccc3OC)=NN2c2ccc(S(N)(=O)=O)cc2)cc1` (centres undefined), the concentration giving a half-maximal response (EC50) was more than 30 µM.

As to `COc1ccc(C2CC(c3ccc(C)cc3)=NN2c2ccc(S(N)(=O)=O)cc2)cc1` (centres undefined), the EC50 was more than 30 µM.

`COc1ccc(C2CC(c3cccc(C(F)(F)F)c3)=NN2c2ccc(S(N)(=O)=O)cc2)cc1` (centres undefined) registered an EC50 of more than 30 µM.

Compound `COc1ccc(C2CC(c3cccc(N(C)C)c3)=NN2c2ccc(S(N)(=O)=O)cc2)cc1` (centres undefined) had an EC50 of more than 30 µM.

As for `COc1ccc(C2CC(c3cccnc3)=NN2c2ccc(S(N)(=O)=O)cc2)cc1` (centres undefined), the EC50 is more than 30 µM.

`COc1ccc(C2CC(c3ccncc3)=NN2c2ccc(S(N)(=O)=O)cc2)cc1` (centres undefined): the 50% effective concentration (EC50) is more than 30 µM.

Compound `Fc1ccccc1C1CC(c2ccc(Br)cc2)=NN1c1ccc(Br)cc1` (centres undefined) [2,5-bis(4-bromophenyl)-3-(2-fluorophenyl)-3,4-dihydropyrazole] registered an EC50 of more than 30 µM.

`COc1ccc(C2CC(c3ccc(F)cc3)=NN2c2cc(Cl)ccc2Cl)cc1` (centres undefined) [2-(2,5-dichlorophenyl)-5-(4-fluorophenyl)-3-(4-methoxyphenyl)-3,4-dihydropyrazole] had an EC50 of 11.1 µM. That is a double-digit micromolar value.

In turn, `COc1ccc(C2=NN(c3ccc(Cl)c(Cl)c3)C(c3ccc(OC)cc3)C2)cc1` (centres undefined) [2-(3,4-dichlorophenyl)-3,5-bis(4-methoxyphenyl)-3,4-dihydropyrazole] returned an EC50 of more than 30 µM.

The compound `Fc1ccc(C2=NN(c3cccc(Br)c3)C(c3ccccc3)C2)cc1` (centres undefined) [2-(3-bromophenyl)-5-(4-fluorophenyl)-3-phenyl-3,4-dihydropyrazole] returned a half-maximal effective concentration (EC50) of more than 30 µM.

Compound `COc1ccc(C2CC(c3ccccc3)=NN2c2ccc(Cl)c(C(=O)O)c2)cc1OC` (centres undefined) [2-chloro-5-[3-(3,4-dimethoxyphenyl)-5-phenyl-3,4-dihydropyrazol-2-yl]benzoic acid] returned an EC50 of more than 30 µM.

`COc1ccc(C2=NN(c3cccc(F)c3)C(c3ccc(Cl)cc3)C2)cc1` (centres undefined) [3-(4-chlorophenyl)-2-(3-fluorophenyl)-5-(4-methoxyphenyl)-3,4-dihydropyrazole]: the EC50 was more than 30 µM.

Compound `COc1ccc(C2C[C-](c3ccccc3)N=[N+]2c2ccc([N+](=O)[O-])cc2)cc1` (centres undefined) [3-(4-methoxyphenyl)-2-(4-nitrophenyl)-5-phenyl-3,4-dihydropyrazole] displayed an EC50 of more than 30 µM.

`COc1ccc(C2CC(c3ccccc3)=NN2c2cccc(S(N)(=O)=O)c2)cc1` (centres undefined) [3-[3-(4-methoxyphenyl)-5-phenyl-3,4-dihydropyrazol-2-yl]benzenesulfonamide] had a 50% effective concentration (EC50) of more than 30 µM.

`CN(C)c1ccc(C2CC(c3ccccc3)=NN2c2ccccc2)cc1` (centres undefined) [4-(2,5-diphenyl-3,4-dihydropyrazol-3-yl)-N,N-dimethylaniline]: the EC50 was more than 30 µM.

Turning to `NS(=O)(=O)c1ccc(N2N=C(c3ccccc3)CC2c2ccccc2)cc1` (centres undefined) [4-(3,5-diphenyl-3,4-dihydropyrazol-2-yl)benzenesulfonamide], the concentration for a half-maximal effect (EC50) was more than 30 µM.

As to `COc1ccc(C2=NN(c3ccc(S(N)(=O)=O)cc3)C(c3ccc(OC)cc3)C2)cc1` (centres undefined) [4-[3,5-bis(4-methoxyphenyl)-3,4-dihydropyrazol-2-yl]benzenesulfonamide], the EC50 was more than 30 µM.

`NS(=O)(=O)c1ccc(N2N=C(c3ccccc3)CC2c2ccccc2Br)cc1` (centres undefined) [4-[3-(2-bromophenyl)-5-phenyl-3,4-dihydropyrazol-2-yl]benzenesulfonamide] returned an EC50 of more than 30 µM.

Consider `COc1ccccc1C1CC(c2ccccc2)=NN1c1ccc(S(N)(=O)=O)cc1` (centres undefined) [4-[3-(2-methoxyphenyl)-5-phenyl-3,4-dihydropyrazol-2-yl]benzenesulfonamide], for which the EC50 was more than 30 µM.

Regarding `COc1cccc(C2CC(c3ccccc3)=NN2c2ccc(S(N)(=O)=O)cc2)c1` (centres undefined) [4-[3-(3-methoxyphenyl)-5-phenyl-3,4-dihydropyrazol-2-yl]benzenesulfonamide], the EC50 is more than 30 µM.

As for `NS(=O)(=O)c1ccc(N2N=C(c3ccccc3)CC2c2ccc(Cl)cc2)cc1` (centres undefined) [4-[3-(4-chlorophenyl)-5-phenyl-3,4-dihydropyrazol-2-yl]benzenesulfonamide], the EC50 was more than 30 µM.

With `COc1ccc(C2CC(c3ccc(C(F)(F)F)cc3)=NN2c2ccc(S(N)(=O)=O)cc2)cc1` (centres undefined) [4-[3-(4-methoxyphenyl)-5-[4-(trifluoromethyl)phenyl]-3,4-dihydropyrazol-2-yl]benzenesulfonamide], the EC50 is more than 30 µM.

Compound `COc1ccc(C2CC(C)=NN2c2ccc(S(N)(=O)=O)cc2)cc1` (centres undefined) [4-[3-(4-methoxyphenyl)-5-methyl-3,4-dihydropyrazol-2-yl]benzenesulfonamide] returned an EC50 of more than 30 µM.

Regarding `COc1ccc(C2CC(c3ccsc3)=NN2c2ccc(S(N)(=O)=O)cc2)cc1` (centres undefined) [4-[3-(4-methoxyphenyl)-5-thiophen-3-yl-3,4-dihydropyrazol-2-yl]benzenesulfonamide], the concentration giving a half-maximal response (EC50) was more than 30 µM.

Compound `COc1ccc(C2CC(c3ccccc3Cl)=NN2c2ccc(S(N)(=O)=O)cc2)cc1` (centres undefined) [4-[5-(2-chlorophenyl)-3-(4-methoxyphenyl)-3,4-dihydropyrazol-2-yl]benzenesulfonamide] registered an EC50 of more than 30 µM.

Consider `COc1ccc(C2CC(c3cccc(F)c3)=NN2c2ccc(S(N)(=O)=O)cc2)cc1` (centres undefined) [4-[5-(3-fluorophenyl)-3-(4-methoxyphenyl)-3,4-dihydropyrazol-2-yl]benzenesulfonamide], for which the EC50 is more than 30 µM.

Turning to `COc1ccc(C2CC(c3cccc(OC)c3)=NN2c2ccc(S(N)(=O)=O)cc2)cc1` (centres undefined) [4-[5-(3-methoxyphenyl)-3-(4-methoxyphenyl)-3,4-dihydropyrazol-2-yl]benzenesulfonamide], the concentration for a half-maximal effect (EC50) was more than 30 µM.

Compound `NS(=O)(=O)c1ccc(N2N=C(c3ccc(Br)cc3)CC2c2ccc(F)cc2)cc1` (centres undefined) [4-[5-(4-bromophenyl)-3-(4-fluorophenyl)-3,4-dihydropyrazol-2-yl]benzenesulfonamide] registered an EC50 of more than 30 µM.

Compound `COc1ccc(C2CC(c3ccc(F)cc3)=NN2c2ccc(S(N)(=O)=O)cc2)cc1` (centres undefined) [4-[5-(4-fluorophenyl)-3-(4-methoxyphenyl)-3,4-dihydropyrazol-2-yl]benzenesulfonamide] came in with a half-maximal effective concentration (EC50) of more than 30 µM.

`COc1ccc(-c2cc(-c3ccccc3)nn2-c2ccc(S(N)(=O)=O)cc2)cc1` [4-[5-(4-methoxyphenyl)-3-phenylpyrazol-1-yl]benzenesulfonamide]: the concentration for a half-maximal effect (EC50) was more than 30 µM.

`COc1ccc(C2CC(C3CCCCC3)=NN2c2ccc(S(N)(=O)=O)cc2)cc1` (centres undefined) [4-[5-cyclohexyl-3-(4-methoxyphenyl)-3,4-dihydropyrazol-2-yl]benzenesulfonamide]: the half-maximal effective concentration (EC50) was more than 30 µM.

Compound `O=S(=O)(c1ccc(N2N=C(c3ccc(Br)cc3)CC2c2ccccc2)cc1)C(F)F` (centres undefined) [5-(4-bromophenyl)-2-[4-(difluoromethylsulfonyl)phenyl]-3-phenyl-3,4-dihydropyrazole] had a 50% effective concentration (EC50) of more than 30 µM.

Turning to `FC(F)(F)c1ccccc1C1CC(c2ccc(Br)cc2)=NN1c1ccccc1` (centres undefined) [5-(4-bromophenyl)-2-phenyl-3-[2-(trifluoromethyl)phenyl]-3,4-dihydropyrazole], the EC50 was more than 30 µM.

As to `O=[N+]([O-])c1cccc(C2C[C-](c3ccc(F)cc3)N=[N+]2c2ccccc2)c1` (centres undefined) [5-(4-fluorophenyl)-3-(3-nitrophenyl)-2-phenyl-3,4-dihydropyrazole], the EC50 is more than 30 µM.

`Cc1ccc(-c2cc(C(F)(F)F)nn2-c2ccc(S(N)(=O)=O)cc2)cc1` [Celecoxib] displayed an EC50 of more than 30 µM.

Regarding `COc1ccc(C2CC(c3ccc(N(C)C)cc3)=NN2c2ccc(S(N)(=O)=O)cc2)cc1` (centres undefined) [KUC103422N], the EC50 was more than 30 µM.

Compound `COc1ccc(C2CC(c3cccs3)=NN2c2ccc(S(N)(=O)=O)cc2)cc1` (centres undefined) [KUC103438N] had an EC50 of more than 30 µM.

Take `NS(=O)(=O)c1ccc(N2N=C(c3ccccc3)CC2c2ccccc2Cl)cc1` (centres undefined) [KUC103446N]: the EC50 was more than 30 µM.

Compound `COc1ccc(C2CC(C(C)(C)C)=NN2c2ccc(S(N)(=O)=O)cc2)cc1` (centres undefined) [KUC103450N] gave an EC50 of more than 30 µM.

The compound `COc1ccc(C2CC(c3ccccc3C(F)(F)F)=NN2c2ccc(S(N)(=O)=O)cc2)cc1` (centres undefined) [KUC103474N] gave an EC50 of more than 30 µM.

Staying with this test, now noted: inactive by the depositor's call.
In the case of `Clc1ccc(N2N=C(c3ccccc3)CC2c2ccccc2)cc1` (centres undefined), the EC50 turned out to be 6.64 µM.

The compound `O=S(=O)(c1ccc(N2N=C(c3ccccc3)CC2c2ccccc2)cc1)C(F)F` (centres undefined) yielded an EC50 of 0.508 µM. This EC50 is about 13-fold lower than that of the compound before.

For the compound `COc1ccc(C2=NN(c3cccc(F)c3)C(c3ccc(OC)cc3)C2)cc1` (centres undefined) [2-(3-fluorophenyl)-3,5-bis(4-methoxyphenyl)-3,4-dihydropyrazole], the response was half-maximal at 0.104 µM (EC50).
